The text below walks through data of US11034718B2, “C-3 novel triterpenone with C-17 reverse amide derivatives as HIV inhibitors” (HETERO LABS LIMITED, priority 2015, dated 2021).

Broadly, the IC50 is the concentration that gives 50% inhibition.

Like-named read-outs stand apart in the source and are kept apart here.

Common to all, as to assay type: cell-based
One experiment relates to HIV-1 pNL4-3 WT. In words: Antiviral activity against pNL4-3/WT strain in MT4 cells (p24 estimation). Particulars: Human immunodeficiency virus 1, MT4, 96 h, read-out: pNL4-3 WT IC50. The protocol: (§1) Example 78: Evaluation of Compounds Antiviral Activity Against pNL4-3/WT & V7A Strains in MT4 Cells
(§2) MT4 cells were Transfected with HIV-1 Plasmid (pNL4-3-WT & V7A) (Cells were incubating with required number of TCID50 of HIV-1 for 1.5 h at 37° C.). After infection, the infected cells were plated at the concentration of 3×10^4 cells per well in 96 well plate. Test compound was added to the test plate in defined format with the final concentration of DMSO is not more than 1%. Incubation was carried out in CO2 incubator for 4 days for viral infection. At the end of incubation period an aliquot from each well was taken for p24 estimation. p24 estimation was carried out using Advance biosciences kit as per the procedure detailed by supplier.

A further experiment deals with HIV-1 strain 92HT599. In words: Antiviral activity against HIV-1 strain 92HT599 in MT2 cells (p24 estimation). Particulars: HIV-1 92HT599, ~96 hours. The method in brief:
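Percent inhibition versus vehicle controls came from p24 quantified in supernatant aliquots. These were taken after ~96 h incubation of compound (DMSO ≤1%) with MT2 cells infected at 10 TCID50/30,000 cells.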

The test system of another experiment is HIV-1 pNL4-3 V7A. In words: Antiviral activity against pNL4-3/V7A strain in MT4 cells (p24 estimation). Particulars: Human immunodeficiency virus 1, MT4, 96 h, read-out: pNL4-3 V7A IC50. The method, then: as §1, §2
Where [1] appears, read: Human immunodeficiency virus 1, 0% serum binding assay, read-out: IC50 0% serum.
Setting [2] is: Human immunodeficiency virus 1, 40% serum binding assay, read-out: IC50 40% serum.

Regarding `Cc1noc(C)c1C(=O)NC(C)(C)C(=O)N[C@@]12CC[C@]3(C)[C@H](CC[C@@H]4[C@@]5(C)CC[C@H](OC(=O)[C@H]6C[C@@H](C(=O)O)C6(C)C)C(C)(C)[C@@H]5CC[C@]43C)C1=C(C(C)C)C(=O)C2` [Example 19, (1R,3S)-3-((((3aR,5aR,5bR,7aR,9S,11aR,11bR,13aS)-3a-(2-(3,5-dimethylisoxazole-4-carboxamido)-2-methylpropanamido)-1-isopropyl-5a,5b,8,8,11a-pentamethyl-2-oxo-3,3a,4,5,5a,5b,6,7,7a,8,9,10,11,11a,11b,12,13,13a-octadecahydro-2H-cyclopenta[a]chrysen-9-yl)oxy)carbonyl)-2,2-dimethylcyclobutane-1-carboxylic acid], the IC50 was less than 5 nM with HIV-1 pNL4-3 WT, less than 3 nM with HIV-1 strain 92HT599 (setting [1]), less than 50 nM with HIV-1 strain 92HT599 (setting [2]) and less than 10 nM in the experiment on HIV-1 pNL4-3 V7A.

`CC(C)C1=C2[C@H]3CC[C@@H]4[C@@]5(C)CC[C@H](OC(=O)[C@H]6C[C@@H](C(=O)O)C6(C)C)C(C)(C)[C@@H]5CC[C@@]4(C)[C@]3(C)CC[C@@]2(NC(=O)C(C)(C)NC(=O)c2ccc(C(F)(F)F)cc2)CC1=O` [Example 25, (1R,3S)-3-((((3aR,5aR,5bR,7aR,9S,11aR,11bR,13aS)-1-isopropyl-5a,5b,8,8,11a-pentamethyl-3a-(2-methyl-2-(4-(trifluoromethyl)benzamido)propan amido)-2-oxo-3,3a,4,5,5a,5b,6,7,7a,8,9,10,11,11a,11b,12,13,13a-octadecahydro-2H-cyclopenta[a]chrysen-9-yl)oxy)carbonyl)-2,2-dimethylcyclobutane-1-carboxylic acid]: the IC50 with HIV-1 pNL4-3 WT was less than 5 nM; in the experiment with HIV-1 strain 92HT599 (setting [1]) it was less than 3 nM; with HIV-1 strain 92HT599 (setting [2]) it was less than 50 nM; in the experiment with HIV-1 pNL4-3 V7A it was less than 10 nM.

Regarding `CC(C)C1=C2[C@H]3CC[C@@H]4[C@@]5(C)CC[C@H](OC(=O)[C@H]6C[C@@H](C(=O)O)C6(C)C)C(C)(C)[C@@H]5CC[C@@]4(C)[C@]3(C)CC[C@@]2(NC(=O)C(C)(C)NC(=O)c2ccc(CN3CCS(=O)(=O)CC3)cc2)CC1=O` [Example 58, (1R,3S)-3-((((3aR,5aR,5bR,7aR,9S,11aR,11bR,13aS)-3a-(2-(4-((1,1-dioxidothiomorpholino)methyl)benzamido)-2-methylpropanamido)-1-isopropyl-5a,5b, 8,8,11a-pentamethyl-2-oxo-3,3a,4,5,5a,5b,6,7,7a,8,9,10,11,11a,11b,12,13,13a-octalecahydro-2H-cyclopenta[a]chrysen-9-yl)oxy)carbonyl)-2,2-dimethylcyclobutane-1-carboxylic acid], the IC50 is 5.01 to 10 nM with HIV-1 pNL4-3 WT, less than 3 nM in the experiment with HIV-1 strain 92HT599 (setting [1]), less than 50 nM in the experiment with HIV-1 strain 92HT599 (setting [2]) and greater than 50 nM in the experiment on HIV-1 pNL4-3 V7A.

With `CC(C)C1=C2[C@H]3CC[C@@H]4[C@@]5(C)CC[C@H](OC(=O)[C@@H]6C[C@H](C(=O)O)C6(C)C)C(C)(C)[C@@H]5CC[C@@]4(C)[C@]3(C)CC[C@@]2(NC(=O)C2(NC(=O)c3ccc(Cl)cc3)CC2)CC1=O` [Example 41, (1S,3R)-3-((((3aR,5aR,5bR,7aR,9S,11aR,11bR,13aS)-3a-(1-(4-chlorobenzamido)cyclopropane-1-carboxamido)-1-isopropyl-5a,5b,8,8,11a-pentamethyl-2-oxo-3,3a,4,5,5a,5b,6,7,7a,8,9,10,11,11a,11b,12,13,13a-octadecahydro-2H-cyclopenta[a]chrysen-9-yl)oxy)carbonyl)-2,2-dimethylcyclobutane-1-carboxylic acid], the IC50 in the experiment with HIV-1 pNL4-3 WT is greater than 10 nM; in the experiment with HIV-1 strain 92HT599 (setting [1]), less than 3 nM; in the experiment on HIV-1 strain 92HT599 (setting [2]), less than 50 nM; in the experiment with HIV-1 pNL4-3 V7A, 10 to 50 nM.

Turning to `CC(C)C1=C2[C@H]3CC[C@@H]4[C@@]5(C)CC[C@H](OC(=O)[C@H]6C[C@@H](C(=O)O)C6(C)C)C(C)(C)[C@@H]5CC[C@@]4(C)[C@]3(C)CC[C@@]2(NC(=O)C(C)(C)NC(=O)c2ccc3[nH]c(-c4cnccn4)nc3c2)CC1=O` [Example 15, (1R,3S)-3-((((3aR,5aR,5bR,7aR,9S,11aR,11bR,13aS)-1-isopropyl-5a,5b,8,8,11a-pentamethyl-3a-(2-methyl-2-(2-(pyrazin-2-yl)-1H-benzo[d]imidazole-5-carboxamido)propanamido)-2-oxo-3,3a,4,5,5a,5b,6,7,7a,8,9,10,11,11a,11b,12,13,13a-octadecahydro-2H-cyclopenta[a]chrysen-9-yl)oxy)carbonyl)-2,2-dimethylcyclobutane-1-carboxylic acid], the IC50 with HIV-1 pNL4-3 WT is less than 5 nM; in the experiment on HIV-1 strain 92HT599 (setting [1]), less than 3 nM; in the experiment on HIV-1 strain 92HT599 (setting [2]), less than 50 nM; with HIV-1 pNL4-3 V7A, greater than 50 nM.

For `CC(C)C1=C2[C@H]3CC[C@@H]4[C@@]5(C)CC[C@H](OC(=O)[C@H]6C[C@@H](C(=O)O)C6(C)C)C(C)(C)[C@@H]5CC[C@@]4(C)[C@]3(C)CC[C@@]2(NC(=O)C2(NC(=O)c3cccnc3N3CCOCC3)CCC2)CC1=O` [Example 45, (1R,3S)-3-((((3aR,5aR,5bR,7aR,9S,11aR,11bR,13aS)-1-isopropyl-5a,5b,8,8,11a-pentamethyl-3a-(1-(2-morpholinonicotinamido)cyclobutane-1-carboxamido)-2-oxo-3,3a,4,5,5a,5b,6,7,7a,8,9,10,11,11a,11b,12,13,13a-octadecahydro-2H-cyclopenta[a]chrysen-9-yl)oxy)carbonyl)-2,2-dimethylcyclobutane-1-carboxylic acid], the IC50 with HIV-1 pNL4-3 WT is less than 5 nM; in the experiment on HIV-1 strain 92HT599 (setting [1]) it was 3.01 to 10 nM; in the experiment on HIV-1 strain 92HT599 (setting [2]), less than 50 nM; in the experiment with HIV-1 pNL4-3 V7A, 10 to 50 nM.

Consider `CC(C)C1=C2[C@H]3CC[C@@H]4[C@@]5(C)CC[C@H](OC(=O)[C@H]6C[C@@H](C(=O)O)C6(C)C)C(C)(C)[C@@H]5CC[C@@]4(C)[C@]3(C)CC[C@@]2(NC(=O)C2(NC(=O)c3ccc(F)cc3)CC2)CC1=O` [Example 39, (1R,3S)-3-((((3aR,5aR,5bR,7aR,9S,11aR,11bR,13aS)-3a-(1-(4-fluorobenzamido)cyclopropane-1-carboxamido)-1-isopropyl-5a,5b,8,8,11a-pentamethyl-2-oxo-3,3a,4,5,5a,5b,6,7,7a,8,9,10,11,11a,11b,12,13,13a-octadecahydro-2H-cyclopenta[a]chrysen-9-yl)oxy)carbonyl)-2,2-dimethylcyclobutane-1-carboxylic acid], for which the IC50 with HIV-1 pNL4-3 WT was 5.01 to 10 nM; in the experiment with HIV-1 strain 92HT599 (setting [1]), less than 3 nM; in the experiment with HIV-1 strain 92HT599 (setting [2]), less than 50 nM; in the experiment on HIV-1 pNL4-3 V7A, 10 to 50 nM.

With `CC(C)C1=C2[C@H]3CC[C@@H]4[C@@]5(C)CC[C@H](OC(=O)[C@H]6C[C@@H](C(=O)O)C6(C)C)C(C)(C)[C@@H]5CC[C@@]4(C)[C@]3(C)CC[C@@]2(NC(=O)C(C)(C)NC(=O)CN2CCS(=O)(=O)CC2)CC1=O` [Example 34, (1R,3S)-3-((((3aR,5aR,5bR,7aR,9S,11aR,11bR,13aS)-3a-(2-(2-(1,1-dioxidothiomorpholino)acetamido)-2-methylpropanamido)-1-isopropyl-5a,5b,8,8,11a-pentamethyl-2-oxo-3,3a,4,5,5a,5b,6,7,7a,8,9,10,11,11a,11b,12,13,13a-octadecahydro-2H-cyclopenta[a]chrysen-9-yl)oxy)carbonyl)-2,2-dimethylcyclobutane-1-carboxylic acid], the IC50 was less than 5 nM with HIV-1 pNL4-3 WT, less than 3 nM with HIV-1 strain 92HT599 (setting [1]), less than 50 nM in the experiment with HIV-1 strain 92HT599 (setting [2]) and 10 to 50 nM in the experiment on HIV-1 pNL4-3 V7A.

On to `CC(C)C1=C2[C@H]3CC[C@@H]4[C@@]5(C)CC[C@H](OC(=O)[C@H]6C[C@@H](C(=O)O)C6(C)C)C(C)(C)[C@@H]5CC[C@@]4(C)[C@]3(C)CC[C@@]2(NC(=O)C(C)(C)NC(=O)c2cccnc2N2CCOCC2)CC1=O` [Example 31, (1R,3S)-3-((((3aR,5aR,5bR,7aR,9S,11aR,11bR,13aS)-1-isopropyl-5a,5b,8,8,11a-pentamethyl-3a-(2-methyl-2-(2-morpholinonicotinamido)propan amido)-2-oxo-3,3a,4,5,5a,5b,6,7,7a,8,9,10,11,11a,11b,12,13,13a-octadecahydro-2H-cyclopenta[a]chrysen-9-yl)oxy)carbonyl)-2,2-dimethylcyclobutane-1-carboxylic acid], for which the half-maximal inhibitory concentration (IC50) is less than 5 nM in the experiment on HIV-1 pNL4-3 WT, less than 3 nM with HIV-1 strain 92HT599 (setting [1]), less than 50 nM in the experiment on HIV-1 strain 92HT599 (setting [2]) and greater than 50 nM with HIV-1 pNL4-3 V7A.

Turning to `Cc1cccnc1C(=O)NC(C)(C)C(=O)N[C@@]12CC[C@]3(C)[C@H](CC[C@@H]4[C@@]5(C)CC[C@H](OC(=O)[C@H]6C[C@@H](C(=O)O)C6(C)C)C(C)(C)[C@@H]5CC[C@]43C)C1=C(C(C)C)C(=O)C2` [Example 29, (1R,3S)-3-((((3aR,5aR,5bR,7aR,9S,11aR,11bR,13aS)-1-isopropyl-5a,5b,8,8,11a-pentamethyl-3a-(2-methyl-2-(3-methylpicolinamido)propanamido)-2-oxo-3,3a,4,5,5a,5b,6,7,7a,8,9,10,11,11a,11b,12,13,13a-octadecahydro-2H-cyclopenta[a]chrysen-9-yl)oxy)carbonyl)-2,2-dimethylcyclobutane-1-carboxylic acid], the IC50 in the experiment on HIV-1 pNL4-3 WT is less than 5 nM; in the experiment with HIV-1 pNL4-3 V7A, 10 to 50 nM.
